Test results: publication PMC11272598, “RG7774 (Vicasinabin), an orally bioavailable cannabinoid receptor 2 (CB2R) agonist, decreases retinal vascular permeability, leukocyte adhesion, and ocular inflammation in animal models” (Frontiers in Pharmacology, 2024)

Legend:
[1] = Cerebrospinal fluid versus plasma concentration (data on file); type: in vivo; details: cynomolgus monkeys
[2] = system: retinal microglia migration; experiment: Laser-induced CNV in rats, microglia volume on laser lesions; type: in vivo, Brown Norway rats
Protocol: Right eyes were transferred to a petri dish containing 10% neutral-buffered formalin (NBF) and fixed for 5 min at RT. Eyes were prepared in PBS^−/– by removing the anterior segments and carefully separating the retinas from the posterior segments (retinal pigment epithelium/choroid and sclera). Dissected retinas were cut into petals, transferred to 2 × 24 well plates containing fresh 10% NBF solution, and fixed for 2 h at RT. […]
Microglia migration towards laser-injured retinal regions was quantified from 3D RGB-images (CZI-files) of the fluorescently labeled retinal samples, a workflow and image analytics tool was applied that allowed a semi-automated volumetric quantitation of Iba1-positive pixel per image frame integrated over the Z-dimension. […] Subsequently, TIFF images were analyzed using IDL (Interactive Data Language, Version 6.4) in combination with Excel 2010 to compute RGB-channel-dependent threshold images (pdf-files) with a histogram between 1–255 A.U. pixel intensity. […] The sum of pixels displaying the determined threshold intensity or higher was calculated and finally integrated over the Z-dimension of the 3D image.

logD 7.4 = type: physicochemical; details: octanol/water, pH 7.4
Text: TABLE 2 Physicochemical and ADMET profile for RG7774.

Mouse CB1R = Mouse CB1R (Mus musculus, UniProt P47746); experiment: Mouse cAMP assay in N18TG2 cells; type: cell-based; details: RG7774 10 µM, N18TG2 cells; read-out: Mean ± SEM % inhibition of control, Mouse CB1R (cAMP assay)
Protocol: The effect of RG7774 on the forskolin-stimulated accumulation of cAMP was determined using the LANCE ULTRAcAMP kit (PerkinElmer Life Sciences, MA, USA), according to the manufacturer’s instructions. Briefly, N18TG2 cells preincubated for 30 min with 1-methyl-3-isobutylxanthine (1 mM) were added to 0.5 µM forskolin preincubated with or without RG7774 for 15 min. Reactions were incubated for 30 min at 37°C and Time-resolved fluorescence was measured using a Victor V Multilabel counter (PerkinElmer Life Sciences). Data were transformed into cAMP concentrations using a standard curve.

Chain of Mouse CB1R (P47746 whole entry): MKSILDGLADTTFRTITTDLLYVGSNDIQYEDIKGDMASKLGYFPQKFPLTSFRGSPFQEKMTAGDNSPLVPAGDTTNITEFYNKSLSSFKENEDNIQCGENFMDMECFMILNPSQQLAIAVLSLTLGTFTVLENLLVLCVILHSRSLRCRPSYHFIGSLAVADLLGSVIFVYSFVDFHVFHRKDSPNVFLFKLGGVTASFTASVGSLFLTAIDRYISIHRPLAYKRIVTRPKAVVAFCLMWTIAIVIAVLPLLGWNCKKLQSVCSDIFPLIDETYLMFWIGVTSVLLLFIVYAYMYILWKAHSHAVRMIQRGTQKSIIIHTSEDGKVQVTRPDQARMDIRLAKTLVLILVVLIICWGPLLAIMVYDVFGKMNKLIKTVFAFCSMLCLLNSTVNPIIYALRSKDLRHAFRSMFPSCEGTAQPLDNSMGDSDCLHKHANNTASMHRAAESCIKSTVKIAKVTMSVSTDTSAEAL

Cn1nnnc1Cn1nnc2c(N3CC[C@H](O)C3)nc(C(C)(C)C)nc21 [RG7774, (S)-1-(5-tert-butyl-3-[(1-methyl-1H-tetrazol-5-yl)methyl]-3H-[1,2,3]triazolo[4,5-d]pyrimidin-7-yl)pyrrolidin-3-ol]
concentrations lower in cerebrospinal fluid than in plasma [1]: approximately 10 fold
reduction of microglia volumes in lasered versus non-lasered regions ([2]; 3 mg/kg oral gavage): 25%
reduction of microglia volumes in lasered versus non-lasered regions ([2]; 10 mg/kg oral gavage): 41%
logD (logD 7.4): 2.2
inhibition at 10 µM (Mouse CB1R): 16.6%
